# Experimental data published in patent publication US9517225B2, “Low dose lipoic acid pharmaceutical compositions and methods” (ENCORE HEALTH, LLC, priority 2008, dated 2016).
# How the values were obtained:
# Assay type in all cases: cell-based
# [1] = system: protein disulfides in the mouse lenses; test: Decrease in disulfide bonds: protein SH/SS in lens homogenates by fluorescent alkylation; conditions: FIG. 5, p≦0.05 vs control
# Description: FIG. 5 depicts a scattergram of the percent of the total protein SH groups in disulfide bonds. Free SH groups were alkylated with 4-acetamido-4′-maleimidylstilbene-2,2′-sulfonic acid (c, 1 μM, 5 μM, 9.6 μM, 50 μM, 96 μM) or 7-diethylamino-3-(4′maleimidylphenyl)-4-methyl coumarin (500 μM, and 500 μM c). Following removal of the first alkylating agent, the S—S bonds were reduced and alkylated with fluorescein-5-maleimide. Absorption spectra were used to calculated total protein (A280 nm), free protein SH (A322 or A384), and protein SS (A490) using the appropriate extinction coefficients. The symbol ‡ indicates statistically significant difference of mean with mean of control (c, p≦0.05).
# Mouse lenses were homogenized in a denaturing buffer containing a fluorescent alkylating agent to modify the free SH groups. After removing the alkylating agent homogenates were reduced and alkylated with a different fluorescent alkylating agent. Absorption spectra of the modified proteins were used to calculate free protein SH and protein SS groups.
# mouse lenses = test: Increase in elasticity: lens organ culture, change in lens diameter under coverslip (ΔD); conditions: mouse lenses incubated 8-15 hours, 0.5 μM to 500 μM tested, p<0.0001
# From the text: FIG. 4 depicts a scatter plot of the change in ΔD (micrometers) in the absence (control) and presence of lipoic acid in lens organ culture experiments. […] Statistical values are highly significant at p<0.0001 by unpaired t-test and by Kruskal Wallis test, which compared medians of each data set. The relative change in Young's modulus (E) can be calculated as the cubic value derived from the ΔD of the control divided by the ΔD of the experimental or E fractional change=(ΔD con/ΔDexp)^3.
# Increase in Elasticity: Pairs of mouse lenses were incubated in medium 200 supplemented with an antibiotic, an antimycotic, in the presence or absence of lipoic acid (concentrations ranging from 0.5 μM to 500 μM) for 8-15 hours. Each lens was removed from medium, weighed, and photographed on a micrometer scale. A coverslip of known weight (0.17899±0.00200 g) was placed on the lens, and the lens was photographed again on the micrometer scale. The diameter of each lens with and without the coverslip was determined from the photographs. The change in lens diameter produced by the force (coverslip) was computed ΔD=(Dwithcoverslip−Dwithoutcoverslip).
# [2] = system: human umbilical vein endothelial cells (HUVEC, first passage); test: In vitro toxicology: cell viability, MultiTox-Fluor or Live/Dead assay; conditions: doses ranging from 0.1 μM to 100 μM
# Description: Cell viability was determined using human umbilical vein endothelial cells (HUVEC, first passage). Cells were treated with the active agent in doses ranging from 0.1 μM to 100 μM. The number of live and dead cells was determined using the MultiTox-Fluor assay (Promega) or Live/Deadly® assay (Invitrogen). Logistic plots were used to determine the compound's LD50 value. Lipoic acid was not cytotoxic in the concentration range.
compound,measurement,setting,value
"O=C(O)CCCCC1CCSS1 (stereo not drawn) [lipoic acid, 5-(1,2-dithiolan-3-yl)pentanoic acid]",concentrations causing a statistically significant decrease in protein disulfides,[1],≥ 9.6 µM
same,concentrations causing a statistically significant increase in ΔD,mouse lenses,≥ 9.6 µM
same,cytotoxicity (live and dead cells),[2],not cytotoxic
